Test results: patent publication US11000033B2, “Ketone or oxime compound, and herbicide” (NISSAN CHEMICAL CORPORATION, priority 2014, dated 2021)

What was measured:
Type in all cases: in vivo
[1] = tested on: Echinochloa oryzacola Vasing.; experiment: Test Example 1: herbicidal activity, application before weed generation in submerged conditions (symbol A); settings: application herbicide amount 320 g/ha
In short: (§1)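 Steps: alluvial soil flooded to 4 cm; weed seeds sown together; rice seedlings (2.5 leaf) transplanted; diluted emulsion applied to water surface the same day as sowing; plants grown at 25–30 °C in greenhouse; herbicidal effect rated on a 0–5 scale at 3 weeks.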

Amaranthus retroflexus = experiment: Test Example 5: herbicidal effect by foliage application, plastic box (symbol N); settings: 320 g/ha, 3 weeks after application
In short: (§2)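 Emulsion formulation, diluted with water to the intended rate, was applied uniformly to leaves by small sprayer. Recipients were 14-day greenhouse-grown seedlings (25° C. to 30° C.). Assessment followed at 3 weeks.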

Monochoria vaginalis = experiment: Test Example 1: herbicidal activity, application before weed generation in submerged conditions (symbol C); settings: application herbicide amount 320 g/ha
In short: as §1

wheat [2] = experiment: Test Example 5: effect on crop by foliage application, plastic box (symbol e); settings: 320 g/ha, 3 weeks after application
In short: (§3)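 Greenhouse test at 25° C. to 30° C. Seeds of crops and weeds were spot-sown in boxes of sterilized diluvial soil under roughly 1.5 cm soil cover, then grown for foliage treatment.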

rapeseed = experiment: Test Example 4: effect on crop by soil treatment (symbol g); settings: for g: rapeseed, effect grade on crop: 320 g/ha
In short: (§4)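 Plants are raised in a greenhouse (25° C. to 30° C.) from spot-sown seed, which sits under about 1.5 cm of sterilized diluvial soil in a box shared with weed species.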

Digitaria ciliaris = experiment: Test Example 4: herbicidal effect by soil treatment (symbol F); settings: for F: Digitaria ciliaris, herbicidal effect grade: 320 g/ha
In short: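 Seeds were sown in sterilized diluvial soil, covered with about 1.5 cm of soil, and the soil surface was sprayed with a water-diluted emulsion of the compound at a predetermined rate. Plants grew in a greenhouse at 25° C. to 30° C.; effects were scored visually 3 weeks after application.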

wheat [3] = experiment: Test Example 4: effect on crop by soil treatment (symbol e); settings: for e: wheat, effect grade on crop: 320 g/ha
In short: as §4

Chenopodium album = experiment: Test Example 5: herbicidal effect by foliage application, plastic box (symbol O); settings: 320 g/ha, 3 weeks after application
In short: as §2

Galium spurium = experiment: Test Example 5: herbicidal effect by foliage application, plastic box (symbol Q); settings: 320 g/ha, 3 weeks after application
In short: as §2

Veronica persica = experiment: Test Example 5: herbicidal effect by foliage application, plastic box (symbol R); settings: 320 g/ha, 3 weeks after application
In short: as §2

[4] = tested on: Echinochloa crus-galli var. crus-galli; experiment: Test Example 5: herbicidal effect by foliage application, plastic box (symbol H); settings: 320 g/ha, 3 weeks after application
In short: as §2

soybean [5] = experiment: Test Example 5: effect on crop by foliage application, plastic box (symbol d); settings: 320 g/ha, 3 weeks after application
In short: as §3

soybean [6] = experiment: Test Example 4: effect on crop by soil treatment (symbol d); settings: for d: soybean, effect grade on crop: 320 g/ha
In short: as §4

Lolium multiflorum Lam. = experiment: Test Example 5: herbicidal effect by foliage application, plastic box (symbol K); settings: 320 g/ha, 3 weeks after application
In short: as §2

beet = experiment: Test Example 5: effect on crop by foliage application, plastic box (symbol f); settings: 320 g/ha, 3 weeks after application
In short: as §3

[7] = tested on: directly sowed rice plant; experiment: Test Example 3: effect on crop by foliage application, Wagner pot (symbol b); settings: application herbicide amount 320 g/ha
In short: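 Steps: fill a 1/10000-are Wagner pot with alluvial soil; add water and mix to submerge at 0.1–0.5 cm depth; sow rice plus Echinochloa crus-galli var. crus-galli, Leptochloa chinensis and Cyperus difformis; grow in a 25–30 °C greenhouse.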

[8] = application herbicide amount 320 g/ha

Row | Compound | Herbicidal effect grade, A: Echinochloa oryzacola Vasing. [1] | N: Amaranthus retroflexus, herbicidal effect (criteria 0-5) (Amaranthus retroflexus) | Herbicidal effect grade, C: Monochoria vaginalis (Monochoria vaginalis) | e: wheat, effect on crop (criteria 0-5) (wheat [2]) | g: rapeseed, effect grade on crop (rapeseed) | F: Digitaria ciliaris, herbicidal effect grade (Digitaria ciliaris) | e: wheat, effect grade on crop (wheat [3]) | O: Chenopodium album, herbicidal effect (criteria 0-5) (Chenopodium album) | Q: Galium spurium, herbicidal effect (criteria 0-5) (Galium spurium) | R: Veronica persica, herbicidal effect (criteria 0-5) (Veronica persica) | H: Echinochloa crus-galli var. crus-galli, herbicidal effect (criteria 0-5) [4] | d: soybean, effect on crop (criteria 0-5) (soybean [5]) | d: soybean, effect grade on crop (soybean [6]) | K: Lolium multiflorum Lam., herbicidal effect (criteria 0-5) (Lolium multiflorum Lam.) | f: beet, effect on crop (criteria 0-5) (beet) | effect on crop b (directly sowed rice plant), grade 0-5 [7] | further results
1 | CON=C(C)CC1CC(OC(=O)c2nc(C)sc2C)=C(c2c(C)cc(C)cc2C)C1=O (stereo not shown) [1-101] | 5 (Herbicidal ratio of 90% or more (almost completely withered)) | 5 (Herbicidal ratio of 90% or more (almost completely withered)) | 2 (Herbicidal ratio of 20% or higher and lower than 40%) | 5 (Herbicidal ratio of 90% or more (almost completely withered)) | 5 (Herbicidal ratio of 90% or more (almost completely withered)) | 5 (Herbicidal ratio of 90% or more (almost completely withered)) | 3 (Herbicidal ratio of 40% or higher and lower than 70%) | 3 (Herbicidal ratio of 40% or higher and lower than 70%) | 0 (Herbicidal ratio of 5% or lower (almost no effect)) | 3 (Herbicidal ratio of 40% or higher and lower than 70%) | 5 (Herbicidal ratio of 90% or more (almost completely withered)) | 3 (Herbicidal ratio of 40% or higher and lower than 70%) | 2 (Herbicidal ratio of 20% or higher and lower than 40%) | 5 (Herbicidal ratio of 90% or more (almost completely withered)) | 0 (Herbicidal ratio of 5% or lower (almost no effect)) | 5 (Herbicidal ratio of 90% or more (almost completely withered)) | 
2 | CON=C(C)CC1CC(OS(=O)(=O)N(C)C)=C(c2c(C)cc(C)cc2C)C1=O (stereo not shown) [1-122] | 5 (Herbicidal ratio of 90% or more (almost completely withered)) | 1 (Herbicidal ratio of 5% or higher and lower than 20%) | 0 (Herbicidal ratio of 5% or lower (almost no effect)) | 4 (Herbicidal ratio of 70% or higher and lower than 90%) | 0 (Herbicidal ratio of 5% or lower (almost no effect)) | 2 (Herbicidal ratio of 20% or higher and lower than 40%) | 0 (Herbicidal ratio of 5% or lower (almost no effect)) | 0 (Herbicidal ratio of 5% or lower (almost no effect)) | 0 (Herbicidal ratio of 5% or lower (almost no effect)) | 0 (Herbicidal ratio of 5% or lower (almost no effect)) | 5 (Herbicidal ratio of 90% or more (almost completely withered)) | 4 (Herbicidal ratio of 70% or higher and lower than 90%) | 0 (Herbicidal ratio of 5% or lower (almost no effect)) | 5 (Herbicidal ratio of 90% or more (almost completely withered)) | 0 (Herbicidal ratio of 5% or lower (almost no effect)) | 5 (Herbicidal ratio of 90% or more (almost completely withered)) | 
3 | CON=C(CC1CC(O)=C(c2c(C)cc(-c3ccccc3)cc2C)C1=O)C1CC1 (mixture of isomers) [9-028] |  |  |  |  |  |  |  |  |  |  |  |  |  |  |  |  | A (Echinochloa oryzacola Vasing.) herbicidal effect grade [1]: 5 (Herbicidal ratio of 90% or more (almost completely withered)); N: Amaranthus retroflexus, herbicidal effect grade (Amaranthus retroflexus): 1 (Herbicidal ratio of 5% or higher and lower than 20%); C (Monochoria vaginalis) herbicidal effect grade (Monochoria vaginalis): 5 (Herbicidal ratio of 90% or more (almost completely withered)); e: wheat, effect on crop grade (wheat [2]): 4 (Herbicidal ratio of 70% or higher and lower than 90%); Effect on crop grade, g: rapeseed (rapeseed; [8]): 4 (Herbicidal ratio of 70% or higher and lower than 90%); Herbicidal effect grade, F: Digitaria ciliaris (Digitaria ciliaris; [8]): 5 (Herbicidal ratio of 90% or more (almost completely withered)); Effect on crop grade, e: wheat (wheat [3]; [8]): 3 (Herbicidal ratio of 40% or higher and lower than 70%); O: Chenopodium album, herbicidal effect grade (Chenopodium album): 2 (Herbicidal ratio of 20% or higher and lower than 40%); Q: Galium spurium, herbicidal effect grade (Galium spurium): 4 (Herbicidal ratio of 70% or higher and lower than 90%); R: Veronica persica, herbicidal effect grade (Veronica persica): 4 (Herbicidal ratio of 70% or higher and lower than 90%); H: Echinochloa crus-galli var. crus-galli, herbicidal effect grade [4]: 5 (Herbicidal ratio of 90% or more (almost completely withered)); d: soybean, effect on crop grade (soybean [5]): 1 (Herbicidal ratio of 5% or higher and lower than 20%); Effect on crop grade, d: soybean (soybean [6]; [8]): 0 (Herbicidal ratio of 5% or lower (almost no effect)); K: Lolium multiflorum Lam., herbicidal effect grade (Lolium multiflorum Lam.): 5 (Herbicidal ratio of 90% or more (almost completely withered)); f: beet, effect on crop grade (beet): 3 (Herbicidal ratio of 40% or higher and lower than 70%); b (directly sowed rice plant) effect on crop grade ([7]; Table 24): 5 (Herbicidal ratio of 90% or more (almost completely withered))
4 | CC(CC1CC(O)=C(c2c(C)cc(C)cc2C)C1=O)=NOCC1OCCO1 (stereo not shown) [1-111] | 5 (Herbicidal ratio of 90% or more (almost completely withered)) | 0 (Herbicidal ratio of 5% or lower (almost no effect)) | 1 (Herbicidal ratio of 5% or higher and lower than 20%) | 5 (Herbicidal ratio of 90% or more (almost completely withered)) | 4 (Herbicidal ratio of 70% or higher and lower than 90%) | 5 (Herbicidal ratio of 90% or more (almost completely withered)) | 5 (Herbicidal ratio of 90% or more (almost completely withered)) | 1 (Herbicidal ratio of 5% or higher and lower than 20%) | 2 (Herbicidal ratio of 20% or higher and lower than 40%) | 1 (Herbicidal ratio of 5% or higher and lower than 20%) | 5 (Herbicidal ratio of 90% or more (almost completely withered)) | 3 (Herbicidal ratio of 40% or higher and lower than 70%) | 1 (Herbicidal ratio of 5% or higher and lower than 20%) | 5 (Herbicidal ratio of 90% or more (almost completely withered)) | 0 (Herbicidal ratio of 5% or lower (almost no effect)) | 5 (Herbicidal ratio of 90% or more (almost completely withered)) | 
